Values after ≈ are worked out from the molar mass of the structure shown.
Tests used:
[1] = Metabolic stability study in human microsome; assay type: in vitro ADME
How it was run: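 Depletion of 1 μM compound followed by LC-MS/MS over 0–30 min (0, 3, 6, 9, 15, 30 min) after methanol quench. Incubations at 37 °C, pH 7.4 phosphate buffer, 0.5 mg/mL microsomal protein, with NADPH (1 mM) or a regenerating system as cofactor; controls lacked cofactor.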

[2] = Lyophilisation solubility assay (Lysa); assay type: physicochemical; conditions: phosphate buffer, pH 6.5, aqueous buffer, thermodynamic from solid
How it was run: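 Solubility in μg/mL is read by UV or HPLC-UV on filtrate, neat and diluted 1/10. Before filtration, the residue from evaporated 10 mM DMSO stock was taken up in pH 6.5 0.05 M phosphate buffer, then stirred 1 h, shaken 2 h and stood overnight, in duplicate.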

HBV [3] = assay: Selectivity index (CC50 value/EC50 value); assay type: cell-based, Hepatitis B virus
How it was run: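 Ratio of CC50 to EC50, measuring antiviral activity against HBV relative to cytotoxicity in vitro; higher values indicate greater separation between viral inhibition and cell death.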

HBV [4] = assay: Anti-HBV activity in vitro in HepG2.2.15 cells (extracellular HBV DNA by qPCR); assay type: cell-based, Hepatitis B virus; conditions: Hepatitis B virus; HepG2.2.15 cells; in-house data; read-out: EC50
How it was run: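 Supernatant HBV DNA was measured by qPCR after viral DNA extraction. Samples came from 5-day cultures of HepG2.2.15 cells, an HBV-genome-transfected HepG2 line, exposed to half-log compound dilutions in medium containing 0.5% DMSO.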

HepDE19 cells = assay: Cytotoxicity (CC50) in HepDE19 cells, CCK-8 cell viability; assay type: cell-based
How it was run: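 HBV-transfected HepG2-derived HepDE19 cells grown in DMEM-F12 with 10% FBS and G418. Viability read five days after treatment by CCK-8, 2 h at 37 °C, absorbance at 450 and 630 nm.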

| Compound | Human Hepatic Clearance [1] | solubility thermodynamic [2] | Selectivity index (CC50/EC50) (HBV [3]) | EC50 (HBV [4]) | CC50 (HepDE19 cells) |
| --- | --- | --- | --- | --- | --- |
| CCOC(=O)C1=C(CN2CCOC[C@H]2C(=O)O)NC(c2nccs2)=N[C@H]1c1ccc(F)c(F)c1Cl [Example 60, (S)-4-[(R)-6-(2-Chloro-3,4-difluoro-phenyl)-5-ethoxycarbonyl-2-thiazol-2-yl-3,6-dihydro-pyrimidin-4-ylmethyl]-morpholine-3-carboxylic acid] | 4.8 mL/min/kg | > 703 µg/mL | 47783 | 0.6 nM | 29000 nM |
| CCOC(=O)C1=C(CN2CCOC[C@H]2C(=O)O)NC(c2nccs2)=N[C@H]1c1cccc(F)c1Cl [Example 63, (S)-4-[(R)-6-(2-Chloro-3-fluoro-phenyl)-5-ethoxycarbonyl-2-thiazol-2-yl-3,6-dihydro-pyrimidin-4-ylmethyl]-morpholine-3-carboxylic acid] | 1.71 mL/min/kg | > 679 µg/mL | >125000 | 0.8 nM | > 100000 nM |
| CCOC(=O)C1=C(CN2CCOC[C@H]2C(=O)O)NC(c2nccs2)=N[C@H]1c1cccc(F)c1Br [Example 66, (S)-4-[(R)-6-(2-Bromo-3-fluoro-phenyl)-5-ethoxycarbonyl-2-thiazol-2-yl-3,6-dihydro-pyrimidin-4-ylmethyl]-morpholine-3-carboxylic acid] | 1.64 mL/min/kg | > 669 µg/mL | 135714 | 0.7 nM | 95000 nM |
| COC(=O)C1=C(CN2CCOC[C@H]2C(=O)O)NC(c2ncoc2C)=N[C@H]1c1ccc(F)cc1Cl [Example 68, (S)-4-[(R)-6-(2-Chloro-4-fluoro-phenyl)-5-methoxycarbonyl-2-(5-methyl-oxazol-4-yl)-3,6-dihydro-pyrimidin-4-ylmethyl]-morpholine-3-carboxylic acid] | 0.23 mL/min/kg | > 627 µg/mL | >7407 | 14 nM | > 100000 nM |
| COC(=O)C1=C(CN2CCOC[C@H]2C(=O)O)NC(c2nccs2)=N[C@H]1c1ccc(F)c(F)c1Cl [Example 73, (S)-4-[(R)-6-(2-Chloro-3,4-difluoro-phenyl)-5-methoxycarbonyl-2-thiazol-2-yl-3,6-dihydro-pyrimidin-4-ylmethyl]-morpholine-3-carboxylic acid] | 0 mL/min/kg | > 656 µg/mL | >83333 | 1.2 nM | > 100000 nM |
| COC(=O)C1=C(CN2CCOC[C@H]2C(=O)O)NC(c2nccs2)=N[C@H]1c1ccc(F)cc1Br [Example 81, (S)-4-[(R)-6-(2-Bromo-4-fluoro-phenyl)-5-methoxycarbonyl-2-thiazol-2-yl-3,6-dihydro-pyrimidin-4-ylmethyl]-morpholine-3-carboxylic acid] | 5.33 mL/min/kg | > 691 µg/mL | >16667 | 6 nM | > 100000 nM |
| CCOC(=O)C1=C(CN2CCOC[C@H]2C(=O)O)NC(c2nccs2)=N[C@H]1c1ccccc1Cl [Example 82, (S)-4-[(R)-6-(2-Chloro-phenyl)-5-ethoxycarbonyl-2-thiazol-2-yl-3,6-dihydro-pyrimidin-4-ylmethyl]-morpholine-3-carboxylic acid] | 0 mL/min/kg | > 618 µg/mL | >7194 | 14 nM | > 100000 nM |
| COC(=O)C1=C(CN2CCOC[C@H]2C(=O)O)NC(c2nc(C(F)(F)F)cs2)=N[C@H]1c1ccc(F)cc1Cl [Example 95, (S)-4-[(R)-6-(2-Chloro-4-fluoro-phenyl)-5-methoxycarbonyl-2-(4-trifluoromethyl-thiazol-2-yl)-3,6-dihydro-pyrimidin-4-ylmethyl]-morpholine-3-carboxylic acid] | 3.04 mL/min/kg | > 705 µg/mL | 40000 | 2.5 nM | > 100000 nM |
| CCOC(=O)C1=C(CN2CCOC[C@H]2C(=O)O)NC(c2nccs2)=N[C@H]1c1ccc(F)c(F)c1C [Example 96, (S)-4-[(S)-6-(3,4-Difluoro-2-methyl-phenyl)-5-ethoxycarbonyl-2-thiazol-2-yl-3,6-dihydro-pyrimidin-4-ylmethyl]-morpholine-3-carboxylic acid] | 4.8 mL/min/kg | > 628 µg/mL | 161667 | 0.6 nM | 97000 nM |
| CC(C)OC(=O)C1=C(CN2CCOC[C@H]2C(=O)O)NC(c2nccs2)=N[C@H]1c1ccc(F)cc1Cl [Example 98, (S)-4-[(R)-6-(2-Chloro-4-fluoro-phenyl)-5-isopropoxycarbonyl-2-thiazol-2-yl-3,6-dihydro-pyrimidin-4-ylmethyl]-morpholine-3-carboxylic acid] | 0 mL/min/kg | > 650 µg/mL | 4224 | 17 nM | 72000 nM |
| COC(=O)C1=C(CN2CCO[C@H](C)[C@H]2C(=O)O)NC(c2nccs2)=N[C@H]1c1ccc(F)cc1Cl [Example 104, (2R,3S)-4-[(R)-6-(2-Chloro-4-fluoro-phenyl)-5-methoxycarbonyl-2-thiazol-2-yl-3,6-dihydro-pyrimidin-4-ylmethyl]-2-methyl-morpholine-3-carboxylic acid] | 5.42 mL/min/kg | > 667 µg/mL | >14286 | 7 nM | > 100000 nM |
| COC(=O)C1=C(CN2CCOC[C@@]2(C)C(=O)O)NC(c2nccs2)=N[C@H]1c1ccc(F)cc1Cl [Example 121, (S)-4-(((R)-6-(2-Chloro-4-fluorophenyl)-5-(methoxycarbonyl)-2-(thiazol-2-yl)-3,6-dihydropyrimidin-4-yl)methyl)-3-methylmorpholine-3-carboxylic acid] | 1.42 mL/min/kg | 600 µg/mL (≈ 1180 µM) | >5000 | 20 nM | > 100000 nM |
| CCOC(=O)C1=C(CN2CCOC[C@H]2C(=O)O)NC(c2nccs2)=N[C@H]1c1ccc(F)c(F)c1Br [Example 128, (3S)-4-[[(4R)-4-(2-Bromo-3,4-difluorophenyl)-5-ethoxycarbonyl-2-(1,3-thiazol-2-yl)-1,4-dihydropyrimidin-6-yl]methyl]morpholine-3-carboxylic acid] | 0.26 mL/min/kg | > 710 µg/mL | 85000 | 0.6 nM | 51000 nM |

From patent publication US9447086B2, “6-amino acid heteroaryldihydropyrimidines for the treatment and prophylaxis of hepatitis B virus infection” (priority 2012, dated 2016)
